According to ChEMBL document CHEMBL2440075, “In vitro structure-activity relationships of aplysinopsin analogs and their in vivo evaluation in the chick anxiety-depression model” (Bioorg Med Chem, 2013):
pKi: −log10 of the molar value. Activity calls are given as the source filed them. No cut-off for these calls is given here.

Experiments:
Gallus gallus [1] = test: Effect on social seperation in chick anxiety-depression model assessed as reduction in distress vocalizations during anxiety-like phase at 10 to 100 nM/kg, ip 15 mins prior to behavioral testing measured for 1 to 5 mins; format: functional, organism-based
[2] = biological target: T1, 5-hydroxytryptamine receptor 2C (Homo sapiens, UniProt P28335); test: Displacement of [3H]mesulergine from human recombinant 5HT2C receptor expressed in Flp-IN HEK cells; format: cell-based, HEK293
T1 sequence (P28335 whole entry): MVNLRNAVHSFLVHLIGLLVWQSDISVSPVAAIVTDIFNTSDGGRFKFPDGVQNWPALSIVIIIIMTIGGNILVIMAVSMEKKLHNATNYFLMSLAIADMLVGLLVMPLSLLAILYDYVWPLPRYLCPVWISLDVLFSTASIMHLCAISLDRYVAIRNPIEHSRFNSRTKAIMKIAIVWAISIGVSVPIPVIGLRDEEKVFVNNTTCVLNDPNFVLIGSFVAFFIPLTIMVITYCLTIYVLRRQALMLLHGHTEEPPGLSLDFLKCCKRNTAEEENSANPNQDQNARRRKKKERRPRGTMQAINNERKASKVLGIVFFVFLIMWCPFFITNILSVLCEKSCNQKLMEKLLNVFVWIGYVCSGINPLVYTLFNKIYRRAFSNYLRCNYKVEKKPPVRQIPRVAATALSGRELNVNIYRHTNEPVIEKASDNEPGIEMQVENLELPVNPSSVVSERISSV

Gallus gallus [3] = test: Effect on isolation-stressor in chick anxiety-depression model assessed as reduction in distress vocalizations during anxiety-like phase at 10 to 100 nM/kg, ip 15 mins prior to behavioral testing measured for 1 to 5 mins; format: functional, organism-based
[4] = biological target: 5-hydroxytryptamine receptor 6 (Homo sapiens, UniProt P50406); test: Displacement of [3H]LSD from human recombinant 5HT6 receptor stably expressed in HEK cells; format: cell-based, HEK293
5-hydroxytryptamine receptor 6, sequence (P50406 whole entry): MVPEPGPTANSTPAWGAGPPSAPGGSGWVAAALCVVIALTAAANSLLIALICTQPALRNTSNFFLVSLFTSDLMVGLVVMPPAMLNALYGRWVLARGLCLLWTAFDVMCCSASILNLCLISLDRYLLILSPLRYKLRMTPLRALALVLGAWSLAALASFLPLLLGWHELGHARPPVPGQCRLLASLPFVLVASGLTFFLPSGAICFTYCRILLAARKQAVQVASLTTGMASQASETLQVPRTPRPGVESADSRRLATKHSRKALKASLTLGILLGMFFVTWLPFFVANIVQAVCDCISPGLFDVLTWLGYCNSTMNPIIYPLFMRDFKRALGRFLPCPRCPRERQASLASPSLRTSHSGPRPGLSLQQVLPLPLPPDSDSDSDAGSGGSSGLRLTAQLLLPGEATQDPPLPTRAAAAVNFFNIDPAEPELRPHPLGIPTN

[5] = biological target: 5-hydroxytryptamine receptor 5A (Homo sapiens, UniProt P47898); test: Displacement of [3H]LSD from human recombinant 5HT5A receptor expressed in Flp-In CHO cells; format: cell-based
5-hydroxytryptamine receptor 5A, sequence (P47898 whole entry): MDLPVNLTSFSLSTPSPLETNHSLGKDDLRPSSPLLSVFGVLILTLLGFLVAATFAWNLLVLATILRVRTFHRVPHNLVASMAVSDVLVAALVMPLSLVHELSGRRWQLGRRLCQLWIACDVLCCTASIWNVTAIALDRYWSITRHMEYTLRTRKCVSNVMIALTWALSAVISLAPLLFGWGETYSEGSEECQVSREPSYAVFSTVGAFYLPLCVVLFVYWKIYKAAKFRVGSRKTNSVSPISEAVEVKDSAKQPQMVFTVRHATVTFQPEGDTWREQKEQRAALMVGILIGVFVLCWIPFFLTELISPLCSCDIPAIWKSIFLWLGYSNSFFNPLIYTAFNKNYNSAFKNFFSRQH

[6] = biological target: 5-hydroxytryptamine receptor 2A (Rattus norvegicus, UniProt P14842); test: Displacement of [3H]ketanserin from rat 5HT2A receptor stably expressed in 3T3 cells; format: cell-based
5-hydroxytryptamine receptor 2A, sequence (P14842 whole entry): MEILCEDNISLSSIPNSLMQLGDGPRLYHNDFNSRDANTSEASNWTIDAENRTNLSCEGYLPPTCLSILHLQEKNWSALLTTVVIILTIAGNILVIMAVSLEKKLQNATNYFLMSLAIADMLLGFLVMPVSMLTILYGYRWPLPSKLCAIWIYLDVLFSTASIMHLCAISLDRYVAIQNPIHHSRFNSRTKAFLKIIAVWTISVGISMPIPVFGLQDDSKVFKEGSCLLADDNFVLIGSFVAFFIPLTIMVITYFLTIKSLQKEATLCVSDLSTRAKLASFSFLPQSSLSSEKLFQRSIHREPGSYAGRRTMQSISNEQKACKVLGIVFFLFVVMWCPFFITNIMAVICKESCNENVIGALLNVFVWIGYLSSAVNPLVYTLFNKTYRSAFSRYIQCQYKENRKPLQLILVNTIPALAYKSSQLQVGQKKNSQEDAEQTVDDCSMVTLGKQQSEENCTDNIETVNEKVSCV

[7] = biological target: 5-hydroxytryptamine receptor 2B (Homo sapiens, UniProt P41595); test: Displacement of [3H]LSD from human recombinant 5HT2B receptor stably expressed in HEK cells; format: cell-based, HEK293
5-hydroxytryptamine receptor 2B, sequence (P41595 whole entry): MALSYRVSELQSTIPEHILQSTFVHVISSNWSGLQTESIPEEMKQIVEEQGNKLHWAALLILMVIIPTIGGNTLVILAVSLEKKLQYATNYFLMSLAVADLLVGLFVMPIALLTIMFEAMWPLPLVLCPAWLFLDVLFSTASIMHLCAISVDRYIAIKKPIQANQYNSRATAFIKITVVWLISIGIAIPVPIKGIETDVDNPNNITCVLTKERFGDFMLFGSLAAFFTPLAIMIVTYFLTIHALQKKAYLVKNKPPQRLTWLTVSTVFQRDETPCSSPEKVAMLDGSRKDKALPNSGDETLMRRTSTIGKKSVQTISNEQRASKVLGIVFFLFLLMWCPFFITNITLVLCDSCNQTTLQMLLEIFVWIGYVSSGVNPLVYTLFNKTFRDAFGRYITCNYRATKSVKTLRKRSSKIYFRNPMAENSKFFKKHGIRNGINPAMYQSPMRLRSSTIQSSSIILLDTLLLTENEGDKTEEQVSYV

Gallus gallus [8] = test: Effect on social seperation in chick anxiety-depression model assessed as attenuation of decline in distress vocalizations during depression-like phase at 30 nM/kg, ip 15 mins prior to behavioral testing measured after 45 to 60 mins; format: functional, organism-based
Gallus gallus [9] = test: Effect on social seperation in chick anxiety-depression model assessed as attenuation of decline in distress vocalizations during depression-like phase at 10 to 100 nM/kg, ip 15 mins prior to behavioral testing measured after 30 to 45 mins; format: functional, organism-based
[10] = biological target: 5-hydroxytryptamine receptor 7 (Homo sapiens, UniProt P34969); test: Displacement of [3H]LSD from human recombinant 5HT7 receptor stably expressed in HEK cells; format: cell-based, HEK293
5-hydroxytryptamine receptor 7, sequence (P34969 whole entry): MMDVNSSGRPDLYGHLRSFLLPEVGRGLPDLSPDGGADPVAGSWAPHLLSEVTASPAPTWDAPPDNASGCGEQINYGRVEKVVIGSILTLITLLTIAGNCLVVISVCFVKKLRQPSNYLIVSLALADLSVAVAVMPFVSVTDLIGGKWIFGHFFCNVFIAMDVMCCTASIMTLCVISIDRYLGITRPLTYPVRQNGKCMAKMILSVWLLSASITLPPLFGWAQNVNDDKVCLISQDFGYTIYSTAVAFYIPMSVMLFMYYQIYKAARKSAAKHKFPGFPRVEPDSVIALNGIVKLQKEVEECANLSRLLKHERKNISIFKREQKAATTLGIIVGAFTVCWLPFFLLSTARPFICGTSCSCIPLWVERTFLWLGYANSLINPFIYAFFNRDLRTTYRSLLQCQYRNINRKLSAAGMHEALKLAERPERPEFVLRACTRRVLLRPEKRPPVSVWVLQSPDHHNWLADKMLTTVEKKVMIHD

Gallus gallus [11] = test: Effect on isolation-stressor in chick anxiety-depression model assessed as attenuation of decline in distress vocalizations during depression-like phase at 30 nM/kg, ip 15 mins prior to behavioral testing measured after 5 to 60 mins; format: functional, organism-based
[12] = biological target: 5-hydroxytryptamine receptor 1D (Homo sapiens, UniProt P28221); test: Displacement of [3H]5-CT from human recombinant 5HT1D receptor expressed in HEKT cells; format: cell-based
5-hydroxytryptamine receptor 1D, sequence (P28221 whole entry): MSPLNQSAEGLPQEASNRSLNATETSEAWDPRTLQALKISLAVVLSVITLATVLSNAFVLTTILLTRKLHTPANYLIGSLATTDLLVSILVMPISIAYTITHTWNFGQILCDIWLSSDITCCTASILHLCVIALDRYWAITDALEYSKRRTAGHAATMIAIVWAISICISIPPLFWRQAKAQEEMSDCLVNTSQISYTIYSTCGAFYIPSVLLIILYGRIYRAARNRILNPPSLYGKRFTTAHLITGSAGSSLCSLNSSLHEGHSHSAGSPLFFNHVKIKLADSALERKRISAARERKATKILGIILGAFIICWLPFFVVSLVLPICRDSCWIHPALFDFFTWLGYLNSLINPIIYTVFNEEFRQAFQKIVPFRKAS

[13] = biological target: 5-hydroxytryptamine receptor 1B (Homo sapiens, UniProt P28222); test: Displacement of [3H]5-CT from human recombinant 5HT1B receptor stably expressed in HEK cells; format: cell-based, HEK293
5-hydroxytryptamine receptor 1B, sequence (P28222 whole entry): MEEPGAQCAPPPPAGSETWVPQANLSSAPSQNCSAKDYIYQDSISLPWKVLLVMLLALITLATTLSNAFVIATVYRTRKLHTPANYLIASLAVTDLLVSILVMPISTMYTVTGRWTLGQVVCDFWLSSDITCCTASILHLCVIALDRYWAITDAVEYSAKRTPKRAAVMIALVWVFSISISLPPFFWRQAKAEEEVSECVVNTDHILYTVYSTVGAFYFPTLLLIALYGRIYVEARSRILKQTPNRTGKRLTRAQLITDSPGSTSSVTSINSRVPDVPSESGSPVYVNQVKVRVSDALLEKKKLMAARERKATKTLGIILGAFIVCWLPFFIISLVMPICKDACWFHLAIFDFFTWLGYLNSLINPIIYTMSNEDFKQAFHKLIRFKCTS

[14] = biological target: T2, 5-hydroxytryptamine receptor 3A (Homo sapiens, UniProt P46098); test: Displacement of [3H]GR65630 from human recombinant 5HT3 receptor expressed in HEKT cells; format: cell-based
T2 sequence (P46098 whole entry): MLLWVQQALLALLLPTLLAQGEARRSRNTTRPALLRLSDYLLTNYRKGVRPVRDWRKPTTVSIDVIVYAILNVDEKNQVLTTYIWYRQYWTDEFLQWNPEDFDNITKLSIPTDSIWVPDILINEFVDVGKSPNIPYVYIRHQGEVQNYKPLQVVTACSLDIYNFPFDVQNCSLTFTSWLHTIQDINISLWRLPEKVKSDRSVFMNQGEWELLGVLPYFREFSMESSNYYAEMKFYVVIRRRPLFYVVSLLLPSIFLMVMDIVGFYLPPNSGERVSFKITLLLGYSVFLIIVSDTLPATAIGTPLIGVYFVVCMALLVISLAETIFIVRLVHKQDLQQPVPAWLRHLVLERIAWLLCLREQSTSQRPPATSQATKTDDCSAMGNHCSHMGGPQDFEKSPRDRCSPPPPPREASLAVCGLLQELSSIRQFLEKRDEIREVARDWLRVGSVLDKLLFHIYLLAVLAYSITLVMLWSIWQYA

[15] = biological target: 5-hydroxytryptamine receptor 1E (Homo sapiens, UniProt P28566); test: Displacement of [3H]5-HT from human recombinant 5HT1E receptor stably expressed in HEK cells; format: cell-based, HEK293
5-hydroxytryptamine receptor 1E, sequence (P28566 whole entry): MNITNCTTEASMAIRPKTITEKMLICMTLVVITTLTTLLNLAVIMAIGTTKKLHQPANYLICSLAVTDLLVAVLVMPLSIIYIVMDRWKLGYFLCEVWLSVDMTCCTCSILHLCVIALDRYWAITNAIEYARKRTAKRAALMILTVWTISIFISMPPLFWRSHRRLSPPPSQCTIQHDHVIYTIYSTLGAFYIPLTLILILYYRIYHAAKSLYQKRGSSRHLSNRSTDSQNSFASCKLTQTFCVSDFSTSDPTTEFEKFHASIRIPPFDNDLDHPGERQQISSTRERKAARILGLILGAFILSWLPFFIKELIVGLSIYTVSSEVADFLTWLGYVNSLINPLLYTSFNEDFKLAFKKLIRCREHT

[16] = biological target: T3, 5-hydroxytryptamine receptor 1A (Homo sapiens, UniProt P08908); test: Displacement of [3H]way100635 from human recombinant 5HT1A receptor stably expressed in CHO cells; format: cell-based
T3 sequence (P08908 whole entry): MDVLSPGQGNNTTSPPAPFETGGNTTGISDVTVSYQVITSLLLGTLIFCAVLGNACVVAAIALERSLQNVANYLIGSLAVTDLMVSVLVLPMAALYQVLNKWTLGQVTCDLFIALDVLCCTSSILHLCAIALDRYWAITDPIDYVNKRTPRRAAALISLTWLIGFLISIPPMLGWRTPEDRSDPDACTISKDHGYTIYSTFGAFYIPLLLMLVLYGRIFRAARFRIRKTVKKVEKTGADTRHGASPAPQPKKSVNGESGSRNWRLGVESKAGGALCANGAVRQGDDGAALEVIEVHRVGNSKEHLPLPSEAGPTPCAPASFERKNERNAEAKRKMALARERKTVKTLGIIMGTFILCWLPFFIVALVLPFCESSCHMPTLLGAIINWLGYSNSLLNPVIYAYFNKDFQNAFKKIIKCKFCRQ

Gallus gallus [17] = test: Effect on social seperation in chick anxiety-depression model assessed as attenuation of decline in distress vocalizations during depression-like phase at 5 mg/kg, ip 15 mins prior to behavioral testing measured after 45 to 60 mins; format: functional, organism-based; design: dose 5 mg/kg
Gallus gallus [18] = test: Effect on social seperation in chick anxiety-depression model assessed as attenuation of decline in distress vocalizations during depression-like phase at 5 mg/kg, ip 15 mins prior to behavioral testing measured after 30 to 45 mins; format: functional, organism-based; design: dose 5 mg/kg
Gallus gallus [19] = test: Effect on isolation-stressor in chick anxiety-depression model assessed as attenuation of decline in distress vocalizations during depression-like phase at 5 mg/kg, ip 15 mins prior to behavioral testing measured after 5 to 60 mins; format: functional, organism-based; design: dose 5 mg/kg

SMILES | Activity (Gallus gallus [1]) | pKi [2] | Activity (Gallus gallus [3]) | pKi [4] | pKi [5] | pKi [6] | pKi [7] | Activity (Gallus gallus [8]) | Activity (Gallus gallus [9]) | pKi [10] | Activity (Gallus gallus [11]) | pKi [12] | pKi [13] | pKi [14] | pKi [15] | pKi [16] | Activity (Gallus gallus [17]) | Activity (Gallus gallus [18]) | Activity (Gallus gallus [19])
N=C1NC(=O)/C(=C\c2c[nH]c3ccc(Br)cc23)N1 | Active | 7.46 | inactive | 6.13 | 7.05 | 7.24 | 7.29 | Active | inactive | 6.29 | Active | – | – | – | – | – | – | – | –
CN1C(=N)N(C)/C(=C/c2c[nH]c3cccc(Br)c23)C1=O | – | 5.56 | – | – | 5.11 | < 5.00 | 6.23 | – | – | – | – | 5.17 | < 5.00 | 6.18 | < 5.00 | 6.50 | – | – | –
CN(C)CCCN1c2ccccc2CCc2ccccc21 | – | – | – | – | – | – | – | – | – | – | – | – | – | – | – | – | Active | Active | Active
CN1C(=N)N(C)/C(=C/c2c[nH]c3c(Br)cccc23)C1=O | – | 5.52 | – | – | – | – | 6.46 | – | – | – | – | < 5.00 | < 5.00 | 5.91 | < 5.00 | 5.74 | – | – | –
C/N=C1\NC(=O)/C(=C\c2c[nH]c3cccc(Br)c23)N1C | – | 6.49 | – | 5.85 | 5.84 | 6.18 | 7.00 | – | – | – | – | < 5.00 | < 5.00 | 5.23 | – | 5.34 | – | – | –
